Measured values taken from patent publication US20100105682A1, “CYCLOPROPYL-PIPERAZINE COMPOUNDS AS CALCIUM CHANNEL BLOCKERS” (priority 2006, published 2010).
Where two headings read alike, the source gives them in different places.

Target: T1, rat brain N-type calcium channel subunits (α1B+α2δ+β1b cDNA subunits) (Rattus norvegicus, UniProt Q02294)
T1 construct: expressed in transfected cells; host or cells: HEK 293 (human embryonic kidney), stably transfected; alternatively transiently transfected
Assay: N-type calcium channel block, whole cell patch clamp in HEK 293 cells
Type: cell-based
Conditions: holding potential −80 mV to +10 mV
Description: N-type calcium channel blocking activity was assayed in human embryonic kidney cells, HEK 293, stably transfected with the rat brain N-type calcium channel subunits (α1B+α2δ+β1b cDNA subunits). Alternatively, N-type calcium channels (α1B+α2δ+β1b cDNA subunits), L-type channels (α1C+α2δ+β1b cDNA subunits) and P/Q-type channels (α1A+α2δ+β1b cDNA subunits) were transiently expressed in HEK 293 cells. Briefly, cells were cultured in Dulbecco's modified eagle medium (DMEM) supplemented with 10% fetal bovine serum, 200 U/ml penicillin and 0.2 mg/ml streptomycin at 37 with 5% CO2. At 85% confluency cells were split with 0.25% trypsin/1 mM EDTA and plated at 10% confluency on glass coverslips. At 12 hours the medium was replaced and the cells transiently transfected using a standard calcium phosphate protocol and the appropriate calcium channel cDNA's. Fresh DMEM was supplied and the cells transferred to 28° C./5% CO2. Cells were incubated for 1 to 2 days prior to whole cell recording.
Whole cell patch clamp experiments were performed using an Axopatch 200B amplifier (Axon Instruments, Burlingame, Calif.) linked to a personal computer equipped with pCLAMP software. The external and internal recording solutions contained, respectively, 5 mM BaCl2, 10 mM MgCl2, 10 mM HEPES, 40 mM TEACl, 10 mM glucose, 87.5 mM CsCl (pH 7.2) and 108 mM CsMS, 4 mM MgCl2, 9 mM EGTA, 9 mM HEPES (pH 7.2). Currents were typically elicited from a holding potential of −80 mV to +10 mV using Clampex software (Axon Instruments). Typically, currents were first elicited with low frequency stimulation (0.067 Hz) and allowed to stabilize prior to application of the compounds. The compounds were then applied during the low frequency pulse trains for two to three minutes to assess tonic block, and subsequently the pulse frequency was increased to 0.2 Hz to assess frequency dependent block. Data were analyzed using Clampfit (Axon Instruments) and SigmaPlot 4.0 (Jandel Scientific).

[1] = low frequency stimulation 0.067 Hz (tonic block), read-out: IC50 @ 0.067 Hz
[2] = pulse frequency 0.2 Hz (frequency dependent block), read-out: IC50 @ 0.2 Hz

T1 sequence (Q02294 whole entry): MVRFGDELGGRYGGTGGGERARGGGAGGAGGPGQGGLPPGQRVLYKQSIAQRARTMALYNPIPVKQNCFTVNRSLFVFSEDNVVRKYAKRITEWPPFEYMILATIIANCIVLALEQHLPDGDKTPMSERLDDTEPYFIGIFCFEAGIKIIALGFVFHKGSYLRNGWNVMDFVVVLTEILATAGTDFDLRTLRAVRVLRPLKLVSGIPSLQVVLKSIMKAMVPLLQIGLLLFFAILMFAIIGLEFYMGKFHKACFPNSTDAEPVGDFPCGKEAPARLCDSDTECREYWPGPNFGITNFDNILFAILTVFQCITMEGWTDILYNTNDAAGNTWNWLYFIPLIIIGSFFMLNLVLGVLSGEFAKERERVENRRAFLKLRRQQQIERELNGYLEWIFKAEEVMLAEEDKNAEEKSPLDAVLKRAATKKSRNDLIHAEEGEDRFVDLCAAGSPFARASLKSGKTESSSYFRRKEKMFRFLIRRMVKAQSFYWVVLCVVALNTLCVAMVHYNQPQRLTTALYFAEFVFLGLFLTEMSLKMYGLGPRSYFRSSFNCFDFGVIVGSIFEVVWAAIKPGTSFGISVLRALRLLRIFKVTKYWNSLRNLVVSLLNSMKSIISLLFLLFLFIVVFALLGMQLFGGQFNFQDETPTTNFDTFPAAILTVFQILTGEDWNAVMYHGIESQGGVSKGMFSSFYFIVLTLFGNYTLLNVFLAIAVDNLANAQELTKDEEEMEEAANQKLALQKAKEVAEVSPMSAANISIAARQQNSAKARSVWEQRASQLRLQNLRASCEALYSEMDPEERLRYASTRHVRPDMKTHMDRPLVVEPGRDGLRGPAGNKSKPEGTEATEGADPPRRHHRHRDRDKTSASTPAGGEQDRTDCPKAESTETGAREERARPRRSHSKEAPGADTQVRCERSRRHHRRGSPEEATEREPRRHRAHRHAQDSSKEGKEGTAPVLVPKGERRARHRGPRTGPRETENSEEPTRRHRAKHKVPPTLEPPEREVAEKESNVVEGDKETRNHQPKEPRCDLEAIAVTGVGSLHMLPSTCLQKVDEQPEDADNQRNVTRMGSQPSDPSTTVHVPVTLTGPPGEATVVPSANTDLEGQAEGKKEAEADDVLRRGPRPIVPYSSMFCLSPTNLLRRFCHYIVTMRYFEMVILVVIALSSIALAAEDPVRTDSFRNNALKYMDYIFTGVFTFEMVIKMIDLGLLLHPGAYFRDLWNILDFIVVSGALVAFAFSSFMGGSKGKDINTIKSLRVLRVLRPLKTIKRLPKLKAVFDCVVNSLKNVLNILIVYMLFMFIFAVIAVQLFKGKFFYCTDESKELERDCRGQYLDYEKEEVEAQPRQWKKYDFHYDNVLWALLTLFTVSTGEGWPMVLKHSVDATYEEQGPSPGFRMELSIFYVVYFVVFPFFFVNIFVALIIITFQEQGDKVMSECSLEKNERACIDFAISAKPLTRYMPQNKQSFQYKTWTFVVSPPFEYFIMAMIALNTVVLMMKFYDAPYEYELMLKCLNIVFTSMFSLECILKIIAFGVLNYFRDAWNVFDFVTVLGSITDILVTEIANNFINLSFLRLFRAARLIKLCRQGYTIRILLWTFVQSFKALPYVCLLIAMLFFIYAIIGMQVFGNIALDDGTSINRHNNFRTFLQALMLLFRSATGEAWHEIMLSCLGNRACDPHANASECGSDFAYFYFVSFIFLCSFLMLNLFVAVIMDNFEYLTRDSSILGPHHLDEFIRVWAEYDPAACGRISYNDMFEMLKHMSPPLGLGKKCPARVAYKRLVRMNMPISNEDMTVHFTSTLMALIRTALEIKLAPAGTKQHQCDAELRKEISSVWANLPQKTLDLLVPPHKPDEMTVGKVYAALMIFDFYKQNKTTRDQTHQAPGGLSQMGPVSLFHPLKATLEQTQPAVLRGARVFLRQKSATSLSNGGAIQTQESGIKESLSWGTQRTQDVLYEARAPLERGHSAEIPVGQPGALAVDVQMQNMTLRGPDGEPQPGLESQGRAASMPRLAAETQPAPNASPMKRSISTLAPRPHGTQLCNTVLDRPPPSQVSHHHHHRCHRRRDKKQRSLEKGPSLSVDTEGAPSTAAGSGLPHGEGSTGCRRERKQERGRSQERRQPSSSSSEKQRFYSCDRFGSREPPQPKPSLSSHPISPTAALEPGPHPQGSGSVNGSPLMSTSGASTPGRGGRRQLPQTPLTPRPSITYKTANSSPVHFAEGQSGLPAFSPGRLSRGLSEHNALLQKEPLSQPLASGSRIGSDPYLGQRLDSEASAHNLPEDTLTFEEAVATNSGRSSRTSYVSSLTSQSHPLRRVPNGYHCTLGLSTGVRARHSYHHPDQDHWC
T1 sequence (P54290 25-944 partner limits assumed): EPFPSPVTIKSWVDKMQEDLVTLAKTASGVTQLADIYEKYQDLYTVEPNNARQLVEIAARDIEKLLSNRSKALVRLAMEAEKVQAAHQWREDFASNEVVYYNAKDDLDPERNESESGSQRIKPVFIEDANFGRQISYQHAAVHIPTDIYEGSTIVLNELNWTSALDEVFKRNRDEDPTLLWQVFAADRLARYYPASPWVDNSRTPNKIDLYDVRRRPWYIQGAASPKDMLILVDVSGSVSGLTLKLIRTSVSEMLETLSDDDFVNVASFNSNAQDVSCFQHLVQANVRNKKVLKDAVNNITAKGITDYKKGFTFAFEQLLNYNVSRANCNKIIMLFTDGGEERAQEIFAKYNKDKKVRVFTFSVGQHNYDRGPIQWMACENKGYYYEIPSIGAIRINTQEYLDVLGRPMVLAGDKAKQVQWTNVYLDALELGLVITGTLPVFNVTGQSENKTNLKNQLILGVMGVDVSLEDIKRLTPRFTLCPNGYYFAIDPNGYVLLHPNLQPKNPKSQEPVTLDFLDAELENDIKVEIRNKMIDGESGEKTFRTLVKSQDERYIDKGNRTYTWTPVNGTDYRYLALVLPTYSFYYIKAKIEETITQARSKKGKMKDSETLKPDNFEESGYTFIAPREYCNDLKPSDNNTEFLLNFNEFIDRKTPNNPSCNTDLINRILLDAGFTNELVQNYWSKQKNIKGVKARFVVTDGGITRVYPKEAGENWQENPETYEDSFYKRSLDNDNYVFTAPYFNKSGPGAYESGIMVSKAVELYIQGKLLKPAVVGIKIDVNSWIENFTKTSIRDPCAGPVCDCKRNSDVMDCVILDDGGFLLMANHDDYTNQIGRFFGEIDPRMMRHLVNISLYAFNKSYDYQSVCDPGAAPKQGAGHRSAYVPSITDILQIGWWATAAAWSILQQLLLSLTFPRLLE
T1 sequence (P54290 945-1091 partner limits assumed): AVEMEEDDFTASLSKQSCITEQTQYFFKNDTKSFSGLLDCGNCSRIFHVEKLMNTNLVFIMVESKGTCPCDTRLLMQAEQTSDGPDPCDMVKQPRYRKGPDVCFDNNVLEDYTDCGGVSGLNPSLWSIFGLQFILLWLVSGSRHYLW
T1 sequence (P54283 whole entry partner): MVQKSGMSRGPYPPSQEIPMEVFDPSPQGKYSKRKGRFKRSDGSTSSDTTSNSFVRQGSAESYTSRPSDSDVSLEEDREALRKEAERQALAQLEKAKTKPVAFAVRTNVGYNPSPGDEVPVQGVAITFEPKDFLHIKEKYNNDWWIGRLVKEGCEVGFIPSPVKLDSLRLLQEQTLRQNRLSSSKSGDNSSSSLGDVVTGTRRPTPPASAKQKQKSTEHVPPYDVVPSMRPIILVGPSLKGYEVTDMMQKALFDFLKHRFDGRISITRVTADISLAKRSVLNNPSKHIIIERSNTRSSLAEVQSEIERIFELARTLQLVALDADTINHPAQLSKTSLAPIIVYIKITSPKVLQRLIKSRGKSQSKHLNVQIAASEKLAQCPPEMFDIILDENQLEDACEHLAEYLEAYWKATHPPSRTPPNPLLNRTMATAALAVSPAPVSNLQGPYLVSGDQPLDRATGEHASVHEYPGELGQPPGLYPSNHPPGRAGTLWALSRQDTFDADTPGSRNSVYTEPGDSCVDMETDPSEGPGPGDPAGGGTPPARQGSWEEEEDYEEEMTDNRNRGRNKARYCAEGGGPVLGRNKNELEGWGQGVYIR

Row | IC50 [1] [nM] | IC50 [2] [nM] | SMILES
1 | 2500 | 1500 | CN1CCN(C(=O)C2CC2C(=O)N2CCN(C(c3ccccc3)c3ccccc3)CC2)CC1 (centres unmarked) [Compound 3, (4-benzhydrylpiperazin-1-yl)(2-(4-methylpiperazine-1-carbonyl)cyclopropyl)methanone]
2 | 2000 | 1500 | COCCN1CCN(C(=O)C2CC2C(=O)N2CCN(C(c3ccccc3)c3ccccc3)CC2)CC1 (centres unmarked) [Compound 7]
3 | 630 | 430 | COc1ccccc1N1CCN(C(=O)C2CC2C(=O)N2CCN(C(c3ccccc3)c3ccccc3)CC2)CC1 (centres unmarked) [Compound 9, (4-benzhydrylpiperazin-1-yl)(2-(4-(2-methoxyphenyl)piperazine-1-carbonyl)cyclopropyl)methanone]
4 | 8530 | 6860 | CC(C)(C)N1CCN(C(=O)C2CC2C(=O)N2CCN(C(c3ccccc3)c3ccccc3)CC2)CC1 (centres unmarked) [Compound 15, (4-benzhydrylpiperazin-1-yl)(2-(4-tert-butylpiperazine-1-carbonyl)cyclopropyl) methanone]
5 | 12500 | 6790 | CNC1CCN(C(=O)C2CC2C(=O)N2CCN(C(c3ccccc3)c3ccccc3)CC2)CC1 (centres unmarked) [Compound 16, (4-benzhydrylpiperazin-1-yl)(2-(4-(methylamino)piperadine-1-carbonyl)cyclopropyl)methanone]
6 | 690 | 440 | CC1CCC(CN2CCN(C(=O)C3CC3C(=O)N3CCN(C(c4ccccc4)c4ccccc4)CC3)CC2)CC1 (centres unmarked) [Compound 18, (4-benzhydrylpiperazin-1-yl)(2-(4-((4-methylcyclohexyl)methyl)piperazine-1-carbonyl)cyclopropyl)methanone]

Second part, the compound before the results:

Row | SMILES | IC50 [1] [nM] | IC50 [2] [nM]
7 | O=C(C1CC1C(=O)N1CCN(C(c2ccccc2)c2ccccc2)CC1)N1CCN(C(c2ccccc2)c2ccccc2)CC1 (centres unmarked) [Compound 1] | 160 | 150
8 | O=C(C1CC1C(=O)N1CCN(C(c2ccccc2)c2ccccc2)CC1)N1CCN(c2ccccc2)CC1 (centres unmarked) [Compound 2, (4-benzhydrylpiperazin-1-yl)(2-(4-phenylpiperazine-1-carbonyl)cyclopropyl)methanone] | 440 | 310
9 | O=C(C1CC1C(=O)N1CCN(C(c2ccccc2)c2ccccc2)CC1)N1CCC(N2CCOCC2)CC1 (centres unmarked) [Compound 4, (4-benzhydrylpiperazin-1-yl)(2-(4-morpholinopiperadine-1-carbonyl)cyclopropyl)methanone] | > 5830 | > 3950
10 | O=C(Nc1ccccc1)C1CC1C(=O)N1CCN(C(c2ccccc2)c2ccccc2)CC1 (centres unmarked) [Compound 6, 2-(4-benzhydrylpiperazine-1-carbonyl)-N-phenylcyclopropanecarboxamide] | 3200 | 1900
11 | O=C(C1CC1C(=O)N1CCN(C(c2ccccc2)c2ccccc2)CC1)N1CCN(c2ccccc2F)CC1 (centres unmarked) [Compound 8, (4-benzhydrylpiperazin-1-yl)(2-(4-(2-fluorophenyl)piperazine-1-carbonyl)cyclopropyl)methanone] | 940 | 530
12 | CC(NC(=O)C1CC1C(=O)N1CCN(C(c2ccccc2)c2ccccc2)CC1)c1ccccc1 (centres unmarked) [Compound 10, 2-(4-benzhydrylpiperazine-1-carbonyl)-N-(1-phenylethyl)cyclopropane carboxamide] | 1550 | 970
13 | CC(C)(C)C1CCC(NC(=O)C2CC2C(=O)N2CCN(C(c3ccccc3)c3ccccc3)CC2)CC1 (centres unmarked) [Compound 11, 2-(4-benzhydrylpiperazine-1-carbonyl)-N-(4-tert-butylcyclohexyl)cyclopropane carboxamide] | 90 | 80
14 | CC1CCC(NC(=O)C2CC2C(=O)N2CCN(C(c3ccccc3)c3ccccc3)CC2)CC1 (centres unmarked) [Compound 12, 2-(4-benzhydrylpiperazine-1-carbonyl)-N-(4-methylcyclohexyl)cyclopropane carboxamide] | 180 | 120
15 | CC1CN(C(=O)C2CC2C(=O)N2CCN(C(c3ccccc3)c3ccccc3)CC2)CC(C)N1 (centres unmarked) [Compound 13, (4-benzhydrylpiperazin-1-yl)(2-(3,5-dimethylpiperazine-1-carbonyl)cyclopropyl)methanone] | 710 | 440
16 | CC(C)N(C(=O)C1CC1C(=O)N1CCN(C(c2ccccc2)c2ccccc2)CC1)C(C)C (centres unmarked) [Compound 14, 2-(4-benzhydrylpiperazine-1-carbonyl)-N,N-diisopropylcyclopropane carboxamide] | 1560 | 860
